Test [1] has as its target T1, human renin (Homo sapiens, UniProt P00797).
T1 sequence (P00797 67-406): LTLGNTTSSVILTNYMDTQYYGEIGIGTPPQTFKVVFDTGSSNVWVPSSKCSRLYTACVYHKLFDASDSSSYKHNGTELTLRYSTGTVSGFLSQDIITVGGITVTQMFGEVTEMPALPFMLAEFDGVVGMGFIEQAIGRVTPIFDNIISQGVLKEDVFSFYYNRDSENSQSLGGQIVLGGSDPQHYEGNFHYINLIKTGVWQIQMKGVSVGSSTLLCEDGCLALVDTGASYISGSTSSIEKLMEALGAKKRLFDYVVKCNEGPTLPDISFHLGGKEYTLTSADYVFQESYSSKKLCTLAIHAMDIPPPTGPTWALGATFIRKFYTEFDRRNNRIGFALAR
The test is described as follows: Human renin-sheep renin substrate reaction system in vitro (angiotensin I by radioimmunoassay). The class given is biochemical. Conditions: pH 7.4, 37° C., 15 minutes, read-out: IC50 (molar concentration which produced 50% inhibition). As for the experimental part: Human renin-sheep renin substrate reaction system in vitro To a mixture containing 200 μl of a 125 mM pyrophosphate buffer (ph 7.4), 25 μl of a 20 mM aqueous solution of […] as an angiotensin converting enzyme inhibitor, 50 μl of semipurified sheep renin substrate (4400 ng angiotensin I/ml) 50 μl of dimethyl sulfoxide solution of a dipeptide of the present invention and 150 μl of deionized water was added 25 μl of purified human renin (20-30 ng angiotensin I/hr). The mixture was incubated for 15 minutes on a water bath at 37° C., and the reaction mixture was allowed to stand for 5 minutes on a water bath at 100° C. to stop the reaction. After cooling, 200 μl of the solution were taken up and the amount of angiotensin I produced by the addition of renin was determined by radioimmunoassay. The inhibitory effect was calculated by the following equation. [formula] As a control, the same procedure as above was carried out by using 50 μl of dimethyl sulfoxide alone in place of the 50 μl of dimethyl sulfoxide solution containing an amino acid derivative of the present invention. The molar concentration which produced 50% inhibition (IC50) was calculated from the inhibition value obtained, and the results are shown below.

Test [2] concerns marmoset. The test is described as follows: Hypotensive effect in marmoset (furosemide-induced high renin state, i.v. injection). Format: in vivo, common marmoset. Conditions: 2.5 mg/kg i.v., conscious male marmoset, furosemide pretreated. As for the experimental part:
Hypotensive effect in marmoset
The experiment was carried out by using common marmoset as described in K. G. Hofbauer et al., Clinical and Experimental Hypertension-Theory and Practice, Vol. A5, No. 7 & 8 (1983), pages 1237-1247.
Furosemide was orally administered three times to common marmoset at 15 mg per kilogram per day every other day to create a high renin state. Blood pressure of consious marmoset was measured 2 days after the last administration of furosemide.
Measurement of blood pressure
Male common marmoset weighing 325 g was lightly anesthetized by ketamine hydrochloride (Ketalar, produced by Parke Davis, 20 mg/kg i.m.), and their carotid artery and vein exposed.. Catheters being filled with a heparin solution was subcutaneously inserted into the carotid artery and vein from the dorsum. After suturing of the opened part, the marmosets were placed on a heated mat. After complete recovery from the anesthesia, an amino acid derivative of the present invention (2.5 mg/kg) was intravenously injected through the venous catheter.
The arterial catheter was connected to a pressure transducer and blood pressure was recorded on the polygraph.

With `CC(C)CCNC(=O)C(O)[C@H](CC(C)C)NC(=O)[C@H](Cc1cnc[nH]1)NC(=O)C(CC(=O)NCCc1ccccc1)Cc1cccc2ccccc12` (single isomer, unassigned), in test [1], the IC50 was found to be 250 nM.
The same measure, in the same setting: the figure for `CC(C)CCOC(=O)C(O)[C@H](CC(C)C)NC(=O)[C@H](Cc1c[nH]cn1)NC(=O)C(CC(=O)NCCc1ccccc1)Cc1cccc2ccccc12` (single isomer, unassigned) is 61 nM.
For `CC(C)C[C@H](NC(=O)[C@H](Cc1cnc[nH]1)NC(=O)C(CC(=O)NCCc1ccccc1)Cc1cccc2ccccc12)C(O)C(=O)NCc1ccccc1` (single isomer, unassigned), the IC50 in test [1] worked out at 100 nM.
As for `CC(C)C[C@H](NC(=O)[C@H](Cc1c[nH]cn1)NC(=O)C(CC(=O)NCCc1ccccc1)Cc1cccc2ccccc12)C(O)C(=O)OCc1ccccc1` (single isomer, unassigned), in test [1], the IC50 is 42 nM.
For the compound `COC(=O)C[C@H](O)[C@H](CC(C)C)NC(=O)[C@H](Cc1cnc[nH]1)NC(=O)C(CC(=O)NCCc1ccccc1)Cc1cccc2ccccc12` (single isomer, unassigned) [Methyl N-[(+)-2-(1-naphthylmethyl)-3-(phenethylcarbamoyl)propionyl]-L-histidylstatinate], the IC50 in test [1] amounted to 310 nM.
For `CNC(=O)C(O)[C@H](CC(C)C)NC(=O)[C@H](Cc1cnc[nH]1)NC(=O)C(CC(=O)NCCc1ccccc1)Cc1cccc2ccccc12` (single isomer, unassigned) [listing 1 of 2 here], the IC50 in test [1] worked out at 4500 nM.
The same measure, in the same setting: with `CC(C)C[C@H](NC(=O)[C@H](Cc1cnc[nH]1)NC(=O)C(CC(=O)NCCc1ccccc1)Cc1cccc2ccccc12)C(O)C(=O)N(C)C` (single isomer, unassigned) the figure was 2800 nM; with `CNC(=O)C(O)[C@H](CC(C)C)NC(=O)[C@H](Cc1cnc[nH]1)NC(=O)C(CC(=O)NCCc1ccccc1)Cc1cccc2ccccc12` (single isomer, unassigned) [listing 2 of 2 here], 390 nM; with `CC(C)C[C@H](NC(=O)[C@H](Cc1cnc[nH]1)NC(=O)C(CC(=O)NCCc1ccccc1)Cc1cccc2ccccc12)C(O)CNCc1ccccc1` (single isomer, unassigned) [(2RS, 3S)-N-Benzyl-3-{N-[(+)-2-(1-naphthylmethyl)-3-(phenethylcarbamoyl)propiobnyl]-L-histidyl}amino-2-hydroxyl-5-methylhexylamine], 150 nM.
Take `CC(C)C[C@H](NC(=O)[C@H](Cc1c[nH]cn1)NC(=O)C(CC(=O)NCCc1ccccc1)Cc1cccc2ccccc12)C(O)CO` (single isomer, unassigned) [(2RS, 3S)-3-{N-[(+)-2-(1-naphthylmethyl)-3-(phenethylcarbamoyl)propionyl]-L-histidyl}amino-2-hydroxy-5-methylhexanol]: the IC50 in test [1] came to 590 nM.
As to `COC(=O)C(O)[C@H](CC(C)C)NC(=O)[C@H](Cc1c[nH]cn1)NC(=O)C(CC(=O)NCCc1ccccc1)Cc1cccc2ccccc12` (mixture of isomers) [methyl (2RS, 3S)-3-{N-[(+)-2-(1-naphthylmethyl)-3-(phenethylcarbamoyl)propionyl]-L-histidyl}amino-2-hydroxy-5-methylhexanoate], the Diastolic blood pressure in test [2] (1 min after injection (control 72)) turned out to be 56 mm Hg; in test [2] (3 min after injection (control 72)) it was 61 mm Hg; in test [2] (5 min after injection (control 72)), 62 mm Hg; in test [2] (10 min after injection (control 72)), 70 mm Hg; in test [2] (15 min after injection (control 72)) it was 72 mm Hg. The Systolic blood pressure in test [2] (1 min after injection (control 103)) came out at 85 mm Hg; in test [2] (3 min after injection (control 103)) it was 91 mm Hg; in test [2] (5 min after injection (control 103)), 92 mm Hg; in test [2] (10 min after injection (control 103)), 102 mm Hg; in test [2] (15 min after injection (control 103)) it was 103 mm Hg. Besides, the IC50 in test [1] was found to be 49 nM.
Turning to `CNC(=O)C(O)[C@H](CC(C)C)NC(=O)[C@H](Cc1cnc[nH]1)NC(=O)C(CC(=O)NCCc1ccccc1)Cc1cccc2ccccc12` (mixture of isomers) [(2RS,3S)-3-{N-[(+)-2-(1-naphthylmethyl)-3-(phenethylcarbamoyl)propionyl]-L-histidyl}-amino-2-hydroxy-5-methylhexanoylmethylamide], the IC50 in test [1] came out at 700 nM.
Same read-out and setting: the figure for `CC(C)C[C@H](NC(=O)[C@H](Cc1c[nH]cn1)NC(=O)C(CC(=O)NCCc1ccccc1)Cc1cccc2ccccc12)[C@@H](O)CCO` (single isomer, unassigned) is 5900 nM.
As for `COCC(O)[C@H](CC(C)C)NC(=O)[C@H](Cc1cnc[nH]1)NC(=O)C(CC(=O)NCCc1ccccc1)Cc1cccc2ccccc12` (single isomer, unassigned) [(2RS, 3S)-3-{N-(+)-2-(1-Naphthylmethyl)-3-(phenethylcarbamoyl)propionyl]-L-histidyl}amino-2-hydroxy-5-methylhexyl methyl ether], the IC50 in test [1] was 790 nM.
Turning to `COC(=O)[C@H](O)[C@H](CC(C)C)NC(=O)[C@H](Cc1cnc[nH]1)NC(=O)C(CC(=O)NCCc1ccccc1)Cc1cccc2ccccc12` (single isomer, unassigned), the IC50 in test [1] was 31 nM.
`CC(C)CCOCC(O)[C@H](CC(C)C)NC(=O)[C@H](Cc1c[nH]cn1)NC(=O)C(CC(=O)NCCc1ccccc1)Cc1cccc2ccccc12` (single isomer, unassigned) [(2RS, 3S)-3-{N-[(+)-2-(1-Naphthylmethyl)-3-(phenethylcarbamoyl)propionyl]-L-histidyl}amino-2-hydroxy-5-methylhexyl isoamyl ether]: the IC50 in test [1] amounted to 280 nM.
On the same count and under the same terms, the figure for `CC(C)CCNC(=O)C[C@H](O)[C@H](CC(C)C)NC(=O)[C@H](Cc1cnc[nH]1)NC(=O)C(CC(=O)NCCc1ccccc1)Cc1cccc2ccccc12` (single isomer, unassigned) [N-[(+)-2-(1-Naphthylmethyl)-3-(phenethylcarbamoyl)propionyl]-L-histidylstatylisoamylamide] is 72 nM; for `CC(C)C[C@H](NC(=O)[C@H](Cc1cnc[nH]1)NC(=O)C(CC(=O)NCCc1ccccc1)Cc1cccc2ccccc12)C(O)COCc1ccccc1` (single isomer, unassigned) [(2RS, 3S)-3-{N-[(+)-2-(1-naphthylmethyl)-3-phenethylcarbamoyl)propionyl]-L-histidyl}amino-2-hydroxy-5-methylhexyl benzyl ether] it is 470 nM; for `CNC(=O)C[C@H](O)[C@H](CC(C)C)NC(=O)[C@H](Cc1cnc[nH]1)NC(=O)C(CC(=O)NCCc1ccccc1)Cc1cccc2ccccc12` (single isomer, unassigned) [N-[(+)-2-(1-Naphthylmethyl)-3-(phenethylcarbamoyl)propionyl]-L-histidylstatylmethylamide] it is 740 nM.
The same measure, in the same setting: the figure for `COC(=O)[C@@H](O)[C@H](CC(C)C)NC(=O)[C@H](Cc1cnc[nH]1)NC(=O)C(CC(=O)NCCc1ccccc1)Cc1cccc2ccccc12` (single isomer, unassigned) is 1300 nM; for `CC(C)CCNCC(O)[C@H](CC(C)C)NC(=O)[C@H](Cc1cnc[nH]1)NC(=O)C(CC(=O)NCCc1ccccc1)Cc1cccc2ccccc12` (single isomer, unassigned) [(2RS, 3S)-N-Isoamyl-3-{N-[(+)-2-(1-naphthylmethyl)-3-(phenethylcarbamoyl)propionyl]-L-histidyl}-amino-2-hydroxy-5-methylhexylamine] it is 350 nM.

Source of the values: patent US4841067A, “Novel amino acid derivatives” (Kissei Pharmaceutical Co., Ltd., priority 1985, dated 1989).
